According to patent US8399493B2, “Pyridinone derivatives and their use as positive allosteric modulators of mGluR2-receptors” (Janssen Pharmaceuticals, Inc., priority 2004, dated 2013):

In the case of N#Cc1cccc(-c2ccc(=O)n(Cc3ccc(Cl)cc3F)c2)c1 [6-25], the melting point is reported as 140 °C.
O=c1ccc(-c2ccc(CO)cc2)cn1Cc1ccc(Cl)cc1F [6-26] showed a melting point of 176 °C.
For O=c1ccc(-c2ccc(C(F)(F)F)cc2)cn1Cc1ccc(Cl)cc1F [6-27], the melting point was 127 °C.
COc1ccc(-c2ccc(=O)n(Cc3ccc(Cl)cc3F)c2)cc1C [6-28] gave a melting point of 104 °C.
With COc1ccc(-c2ccc(=O)n(Cc3ccc(Cl)cc3F)c2)cc1OC [6-31] the melting point was 141 °C.
Work on CCCOc1ccc(-c2ccc(=O)n(Cc3ccc(Cl)cc3F)c2)cc1 [6-32] yielded a melting point of 107 °C.
Compound CC(C)COc1ccc(-c2ccc(=O)n(Cc3ccc(Cl)cc3F)c2)cc1 [6-33] has a melting point of 88 °C.
Work on COCCOc1ccc(-c2ccc(=O)n(Cc3ccc(Cl)cc3F)c2)cc1 [6-36] yielded a melting point of 90 °C.
With O=c1ccc(-c2ccc(OCc3ccco3)cc2)cn1Cc1ccc(Cl)cc1F [6-37] the melting point was 114 °C.
In the case of COC(=O)Oc1ccc(-c2ccc(=O)n(Cc3ccc(Cl)cc3F)c2)cc1 [6-39, 4-(1-(4-Chloro-2-fluorobenzyl)-6-oxo-1,6-dihydropyridin-3-yl)phenyl methyl carbonate], the melting point is reported as 124 °C.
CC(=O)COc1ccc(-c2ccc(=O)n(Cc3ccc(Cl)cc3F)c2)cc1 [6-40, 1-(4-Chloro-2-fluorobenzyl)-5-(4-(2-oxopropoxy)phenyl)pyridin-2(1H)-one] showed a melting point of 127 °C.
COC(=O)COc1ccc(-c2ccc(=O)n(Cc3ccc(Cl)cc3F)c2)cc1 [6-41] showed a melting point of 119 °C.
For NCCOc1ccc(-c2ccc(=O)n(Cc3ccc(Cl)cc3F)c2)cc1 [6-42], the melting point was 226 °C.
Compound NCCCOc1ccc(-c2ccc(=O)n(Cc3ccc(Cl)cc3F)c2)cc1 [6-43] has a melting point of 253 °C.
Compound CN(C)CCOc1ccc(-c2ccc(=O)n(Cc3ccc(Cl)cc3F)c2)cc1 [6-44] has a melting point of 85 °C.
In the case of CN(C)CCCOc1ccc(-c2ccc(=O)n(Cc3ccc(Cl)cc3F)c2)cc1 [6-45], the melting point is reported as 104 °C.
N#CCOc1ccc(-c2ccc(=O)n(Cc3ccc(Cl)cc3F)c2)cc1 [6-46, 2-(4-(1-(4-Chloro-2-fluorobenzyl)-6-oxo-1,6-dihydropyridin-3-yl)-phenoxy)acetonitrile] gave a melting point of 160 °C.
O=c1ccc(-c2ccc(OCCCN3CCOCC3)cc2)cn1Cc1ccc(Cl)cc1F [6-48] gave a melting point of 153 °C.
In the case of COc1ccc(-c2ccc(=O)n(Cc3ccc(Cl)cc3F)c2)cn1 [6-51, 1-(4-Chloro-2-fluorobenzyl)-5-(6-methoxypyridin-3-yl)pyridin-2(1H)-one], the melting point is reported as 136 °C.
Compound CNC(=O)COc1ccc(-c2ccc(=O)n(Cc3ccc(Cl)cc3F)c2)cc1 [6-52] has a melting point of 162 °C.
In the case of CC(=O)NCCOc1ccc(-c2ccc(=O)n(Cc3ccc(Cl)cc3F)c2)cc1 [6-53, N-(2-(4-(1-(4-Chloro-2-fluorobenzyl)-6-oxo-1,6-dihydropyridin-3-yl)phenoxy)ethyl)acetamide], the melting point is reported as 153 °C.
With CC(=O)N(CCOc1ccc(-c2ccc(=O)n(Cc3ccc(Cl)cc3F)c2)cc1)C(C)=O [6-55] the melting point was 121 °C.
Work on CC(=O)N(CCCOc1ccc(-c2ccc(=O)n(Cc3ccc(Cl)cc3F)c2)cc1)C(C)=O [6-56] yielded a melting point of 131 °C.
CC(=O)Nc1cccc(-c2ccc(=O)n(Cc3ccc(Cl)cc3F)c2)c1 [6-57] showed a melting point of 194 °C.
With CC(=O)Nc1ccc(-c2ccc(=O)n(Cc3ccc(Cl)cc3F)c2)cc1 [6-58] the melting point was 230 °C.
Compound CC(=O)NCc1cccc(-c2ccc(=O)n(Cc3ccc(Cl)cc3F)c2)c1 [6-60] has a melting point of 143 °C.
CC(=O)NCc1ccc(-c2ccc(=O)n(Cc3ccc(Cl)cc3F)c2)cc1 [6-61] showed a melting point of 150 °C.
With O=C1CCCN1CCOc1ccc(-c2ccc(=O)n(Cc3ccc(Cl)cc3F)c2)cc1 [6-62] the melting point was 180 °C.
In the case of Cc1cc(COc2ccc(-c3ccc(=O)n(Cc4ccc(Cl)cc4F)c3)cc2)no1 [6-63], the melting point is reported as 135 °C.
For Cc1nc(COc2ccc(-c3ccc(=O)n(Cc4ccc(Cl)cc4F)c3)cc2)cs1 [6-66], the melting point was 90 °C.
O=c1ccc(-c2cccc(-c3nn[nH]n3)c2)cn1Cc1ccc(Cl)cc1F [6-67] gave a melting point of 240 °C.
In the case of O=c1ccc(-c2ccc(-c3nnn[nH]3)cc2)cn1Cc1ccc(Cl)cc1F [6-68], the melting point is reported as 241 °C.
O=c1ccc(-c2ccc3sccc3c2)cn1Cc1ccc(Cl)cc1F [6-69, 1-(4-Chloro-2-fluorobenzyl)-5-(benzo[b]thiophen-5-yl)pyridin-2(1H)-one] showed a melting point of 110 °C.
In the case of CS(=O)(=O)NCCOc1ccc(-c2ccc(=O)n(Cc3ccc(Cl)cc3F)c2)cc1 [6-70], the melting point is reported as 139 °C.
Work on CS(=O)(=O)NCCCOc1ccc(-c2ccc(=O)n(Cc3ccc(Cl)cc3F)c2)cc1 [6-71] yielded a melting point of 157 °C.
For CS(=O)(=O)NCc1cccc(-c2ccc(=O)n(Cc3ccc(Cl)cc3F)c2)c1 [6-72], the melting point was 110 °C.
For O=c1ccc(-c2ccc(S(=O)(=O)N3CCOCC3)cc2)cn1Cc1ccc(Cl)cc1F [6-74], the melting point was 141 °C.
For O=c1ccc(-c2ccc(S(=O)(=O)N3CCCC3)cc2)cn1Cc1ccc(Cl)cc1F [6-75], the melting point was 177 °C.
COc1ccc(Cn2cc(-c3ccc(C(C)=O)cc3)ccc2=O)cc1 [6-76] gave a melting point of 97 °C.
In the case of COc1ccc(Cn2cc(-c3ccc(C#N)cc3)ccc2=O)cc1 [6-77], the melting point is reported as 134 °C.
Work on COc1ccc(-c2ccc(=O)n(Cc3ccc(C(F)(F)F)nc3)c2)cn1 [6-80] yielded a melting point of 160 °C.
With O=c1ccc(-c2ccccc2)cn1Cc1nc2ccccc2s1 [6-81] the melting point was 149 °C.
With O=c1cc(OCCc2ccccc2)ccn1Cc1cccc(F)c1 [7-03, 1-(3-Fluorobenzyl)-4-phenethoxypyridin-2(1H)-one] the melting point was 93 °C.
With CC(C)CCn1cc(-c2cccc(NS(C)(=O)=O)c2)ccc1=O [8-02, N-(3-(1-Isopentyl-6-oxo-1,6-dihydropyridin-3-yl)phenyl)methane-sulfonamide] the melting point was 159 °C.
Compound COc1ccc(-c2cc(CO)c(=O)n(Cc3ccc(Cl)cc3)c2)cc1 [9-08, 1-(4-Chlorobenzyl)-3-(hydroxymethyl)-5-(4-methoxyphenyl)pyridin-2(1H)-one] has a melting point of 128 °C.
For O=c1ccc(CNc2ccccc2)cn1Cc1ccc(Cl)cc1 [16-01], the melting point was 142 °C.
With COc1ccc(OCc2ccc(=O)n(Cc3ccc(Cl)cc3)c2)cc1 [16-02, 1-(4-Chlorobenzyl)-5-((4-methoxyphenoxy)methyl)pyridin-2(1H)-one] the melting point was 114 °C.
O=c1ccc(COc2ccccc2)cn1Cc1ccc(F)c(F)c1 [16-03, 1-(3,4-Difluorobenzyl)-5-(phenoxymethyl)pyridin-2(1H)-one] showed a melting point of 89 °C.
With O=c1ccc(COc2ccccc2)cn1Cc1ccc(Cl)cc1F [16-04] the melting point was 86 °C.
